Reference: patent US8623860B2, “Azetidine derivatives, pharmaceutical compositions and uses thereof” (Boehringer Ingelheim International GmbH, priority 2011, dated 2014)
pIC50: −log10 of the molar value.

Target: human ACC2 (Homo sapiens (Human), UniProt O00763)
Experiment: ACC2 assay, spectrophotometric 384 well assay (NADH-linked, coupled lactate dehydrogenase/pyruvate kinase reaction)
Type: biochemical
Conditions: hACC2 construct lacking the 128 N-terminal amino acids; 25° C., 340 nm, 15 minutes
Procedure: Spectrophotometric 384 Well Assay
Malonyl CoA formation by acetyl CoA carboxylases is stoichometrically linked to the consumption of ATP. ACC2 activity is measured in a NADH-linked kinetic method measuring ADP generated during the ACC reaction using a coupled lactate dehydrogenase/pyruvate kinase reaction.
For biological testing, a human ACC2 construct which lacks the 128 amino acids at the N-terminus for increased solubility (nt 385-6966 in Genbank entry AJ575592) is cloned. The protein is then expressed in insect cells using a baculoviral expression system. Protein purification is performed by anion exchange.
All compounds are dissolved in dimethyl sulfoxide (DMSO) to a concentration of 10 mM.
Assay reactions are then carried out in 384-well plates, with hACC2 in an appropriate dilution and at final assay concentrations (f.c.) of 100 mM Tris (pH 7.5), 10 mM trisodium citrate, 25 mM KHCC3, 10 mM MgCl2, 0.5 mg/ml BSA, 3.75 mM reduced L-glutathione, 15 U/ml lactate dehydrogenase, 0.5 mM phosphoenolpyruvate, 15 U/ml pyruvate kinase, compounds at different concentrations at final DMSO concentrations of 1%.
The enzymatic reaction is then started by addition of a mixture of NADH, acetyl Coenzyme A (both 200 μM f.c.) and ATP (500 uM f.c.). The decrease of the optical density (slope S) is then determined at 25° C. at a wavelength of 340 nm over 15 minutes in a spectrophotometric reader.
Each assay microtiter plate contains wells with vehicle instead of compound as controls for the non-inhibited enzyme (100% CTL; ‘HIGH’) and wells without acetyl-CoA as controls for non-specific NADH degradation (0% CTL; ‘LOW’).
The slope S is used for calculation of % CTL=(S(compound)−S(‘LOW’))/(S(‘HIGH’)−S(‘LOW’))*100. Compounds will give values between 100% CTL (no inhibition) and 0% CTL (complete inhibition).
For IC50 value determination, the sample slope in the presence of the test compound after subtraction of the low controls (S(compound)−S(‘LOW’)) are used.
An IC50 value is derived from the compound slopes at different dosages after subtraction of the low controls (S(compound)−S(‘LOW’)) by non-linear regression curve fitting (equation y=(A+((B−A)/(1+((C/x)^D))))).
In the following table the activity expressed as IC50 (μM) of compounds according to the invention is presented wherein the IC50 values are determined in the ACC2 assay as described hereinbefore. The term “Ex.” refers to the example numbers according to the following experimental section.

Chain of human ACC2 (O00763 129-2458): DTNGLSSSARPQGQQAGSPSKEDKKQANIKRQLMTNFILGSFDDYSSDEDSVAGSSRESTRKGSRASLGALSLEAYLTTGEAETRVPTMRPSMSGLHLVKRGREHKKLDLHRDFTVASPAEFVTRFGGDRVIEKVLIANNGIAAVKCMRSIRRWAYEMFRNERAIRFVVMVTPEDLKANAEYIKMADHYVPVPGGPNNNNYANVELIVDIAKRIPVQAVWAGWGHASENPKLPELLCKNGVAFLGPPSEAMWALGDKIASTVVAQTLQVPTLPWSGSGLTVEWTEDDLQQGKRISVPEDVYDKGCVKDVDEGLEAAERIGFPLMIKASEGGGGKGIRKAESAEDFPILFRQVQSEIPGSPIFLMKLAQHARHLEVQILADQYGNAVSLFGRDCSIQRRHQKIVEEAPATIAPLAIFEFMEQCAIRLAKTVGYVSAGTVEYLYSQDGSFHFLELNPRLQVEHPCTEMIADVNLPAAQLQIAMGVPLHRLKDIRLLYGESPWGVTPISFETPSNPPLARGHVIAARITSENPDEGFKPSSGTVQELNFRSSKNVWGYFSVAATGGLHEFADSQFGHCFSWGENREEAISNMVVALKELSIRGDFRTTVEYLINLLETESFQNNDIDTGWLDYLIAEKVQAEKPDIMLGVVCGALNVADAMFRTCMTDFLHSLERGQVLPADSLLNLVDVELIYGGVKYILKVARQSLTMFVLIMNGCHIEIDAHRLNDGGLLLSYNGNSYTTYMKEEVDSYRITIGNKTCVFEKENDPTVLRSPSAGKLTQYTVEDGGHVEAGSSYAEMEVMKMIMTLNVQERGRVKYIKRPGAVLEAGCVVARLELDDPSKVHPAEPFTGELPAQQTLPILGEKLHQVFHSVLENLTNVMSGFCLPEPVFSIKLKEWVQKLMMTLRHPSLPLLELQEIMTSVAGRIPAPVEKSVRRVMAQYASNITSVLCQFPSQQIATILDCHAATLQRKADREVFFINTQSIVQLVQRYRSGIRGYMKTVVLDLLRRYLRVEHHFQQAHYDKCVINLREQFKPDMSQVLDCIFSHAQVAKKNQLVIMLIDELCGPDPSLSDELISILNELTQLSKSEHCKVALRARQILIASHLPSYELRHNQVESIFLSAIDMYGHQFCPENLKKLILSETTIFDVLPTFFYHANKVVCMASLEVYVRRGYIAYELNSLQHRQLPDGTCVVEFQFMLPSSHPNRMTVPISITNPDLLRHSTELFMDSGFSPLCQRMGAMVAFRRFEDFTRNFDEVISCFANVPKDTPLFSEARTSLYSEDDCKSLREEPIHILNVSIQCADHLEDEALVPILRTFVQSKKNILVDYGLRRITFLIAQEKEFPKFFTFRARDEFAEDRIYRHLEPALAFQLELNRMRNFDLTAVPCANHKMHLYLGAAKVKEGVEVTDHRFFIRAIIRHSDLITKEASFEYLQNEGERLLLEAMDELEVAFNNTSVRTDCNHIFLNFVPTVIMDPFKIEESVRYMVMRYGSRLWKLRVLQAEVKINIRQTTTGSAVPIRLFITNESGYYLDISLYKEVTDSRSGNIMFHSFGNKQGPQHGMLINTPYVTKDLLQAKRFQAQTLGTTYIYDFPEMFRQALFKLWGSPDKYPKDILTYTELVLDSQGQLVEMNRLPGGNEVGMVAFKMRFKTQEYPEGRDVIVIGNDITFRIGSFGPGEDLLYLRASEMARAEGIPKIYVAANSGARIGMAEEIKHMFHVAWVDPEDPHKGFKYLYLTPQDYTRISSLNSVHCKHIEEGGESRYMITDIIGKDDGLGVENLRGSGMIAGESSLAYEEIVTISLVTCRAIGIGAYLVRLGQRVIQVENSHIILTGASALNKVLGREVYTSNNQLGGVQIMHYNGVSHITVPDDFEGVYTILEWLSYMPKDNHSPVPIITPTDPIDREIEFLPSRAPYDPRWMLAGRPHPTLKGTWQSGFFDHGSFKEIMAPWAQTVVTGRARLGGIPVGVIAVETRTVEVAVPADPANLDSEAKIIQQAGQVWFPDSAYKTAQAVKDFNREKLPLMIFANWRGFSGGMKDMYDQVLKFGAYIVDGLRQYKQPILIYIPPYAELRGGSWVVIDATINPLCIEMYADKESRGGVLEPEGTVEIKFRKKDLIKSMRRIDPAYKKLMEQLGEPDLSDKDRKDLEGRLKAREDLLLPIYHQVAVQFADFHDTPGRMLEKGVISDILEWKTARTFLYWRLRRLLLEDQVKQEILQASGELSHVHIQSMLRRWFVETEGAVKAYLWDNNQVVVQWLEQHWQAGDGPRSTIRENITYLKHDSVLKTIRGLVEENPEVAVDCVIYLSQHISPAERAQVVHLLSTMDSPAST

Structure (SMILES): CC(Cc1ccc(C2CN(c3ccc(OCC4CC4)cc3)C2)cc1)NC(=O)CCC#N (stereo not drawn) [Example 3.18]
- pIC50: 5.52

Structure (SMILES): C=CCC(=O)NC(C)Cc1ccc(C2CN(c3ccc4c(c3)OCCO4)C2)cc1 (stereo not drawn) [Example 3.19]
- pIC50: 5.54

Structure (SMILES): C[C@H](NC(=O)C1CCOC1)c1ccc(C2CN(c3ccc(OCC4CC4)cc3)C2)cc1 (stereo partly drawn) [Example 3.20]
- pIC50: 5.99

Structure (SMILES): C[C@H](NC(=O)Cc1cc[nH]c1)c1ccc(C2CN(c3ccc(OCC4CC4)cc3)C2)cc1 [Example 3.21]
- pIC50: 5.53

Structure (SMILES): CCOCC(=O)N[C@@H](C)c1ccc(C2CN(c3ccc(OCC4CC4)cc3)C2)cc1 [Example 3.22]
- pIC50: 5.59

Structure (SMILES): COC1CC(C(=O)N[C@@H](C)c2ccc(C3CN(c4ccc(OCC5CC5)cc4)C3)cc2)C1 (stereo partly drawn) [Example 3.23]
- pIC50: 5.58

Structure (SMILES): C[C@H](NC(=O)Cc1cccnc1)c1ccc(C2CN(c3ccc(OCC4CC4)cc3)C2)cc1 [Example 3.24]
- pIC50: 5.78

Structure (SMILES): Cc1ncsc1C(=O)N[C@@H](C)c1ccc(C2CN(c3ccc(OCC4CC4)cc3)C2)cc1 [Example 3.25]
- pIC50: 5.52

Structure (SMILES): C[C@H](NC(=O)C1(C)CC1)c1ccc(C2CN(c3ccc(OCC4CC4)cc3)C2)cc1 [Example 3.26]
- pIC50: 5.62

Structure (SMILES): C[C@H](NC(=O)C1CCCCO1)c1ccc(C2CN(c3ccc(OCC4CC4)cc3)C2)cc1 (stereo partly drawn) [Example 3.27]
- pIC50: 5.54

Structure (SMILES): CC(C#N)C(=O)N[C@@H](C)c1ccc(C2CN(c3ccc(OCC4CC4)cc3)C2)cc1 (stereo partly drawn) [Example 3.28]
- pIC50: 5.92

Structure (SMILES): C[C@H](NC(=O)Cn1cncn1)c1ccc(C2CN(c3ccc(OCC4CC4)cc3)C2)cc1 [Example 3.29]
- pIC50: 5.78

Structure (SMILES): COCCC(=O)N[C@@H](C)c1ccc(C2CN(c3ccc(OCC4CC4)cc3)C2)cc1 [Example 3.30]
- pIC50: 5.69

Structure (SMILES): CC(=O)Nc1nc(C(=O)N[C@@H](C)c2ccc(C3CN(c4ccc(OCC5CC5)cc4)C3)cc2)cs1 [Example 3.31]
- pIC50: 5.79

Structure (SMILES): CC(C)C(=O)N[C@@H](C)c1ccc(C2CN(c3ccc(OCC4CC4)cc3)C2)cc1 [Example 3.32]
- pIC50: 5.75

Structure (SMILES): C[C@H](NC(=O)C1CC(F)C1)c1ccc(C2CN(c3ccc4c(c3)OCCO4)C2)cc1 (stereo partly drawn) [Example 3.33]
- pIC50: 5.54

Structure (SMILES): C[C@H](NC(=O)C1CNC(=O)C1)c1ccc(C2CN(c3ccc(OCC4CC4)cc3)C2)cc1 (stereo partly drawn) [Example 3.34]
- pIC50: 5.56

Structure (SMILES): C[C@H](NC(=O)C1(C#N)CC1)c1ccc(C2CN(c3ccc(OCC4CC4)cc3)C2)cc1 [Example 3.35]
- pIC50: 5.84

Structure (SMILES): CC(=O)Nc1cccc(C(=O)N[C@@H](C)c2ccc(C3CN(c4ccc(OCC5CC5)cc4)C3)cc2)c1 [Example 3.36]
- pIC50: 5.66

Structure (SMILES): C[C@H](NC(=O)C1CC(F)C1)c1ccc(C2CN(c3ccc(OCC4CC4)cc3)C2)cc1 (stereo partly drawn) [Example 3.37]
- pIC50: 5.93

Structure (SMILES): Cc1nc(C(=O)N[C@@H](C)c2ccc(C3CN(c4ccc(OCC5CC5)cc4)C3)cc2)c(C)s1 [Example 3.38]
- pIC50: 5.85

Structure (SMILES): C[C@H](NC(=O)c1ccns1)c1ccc(C2CN(c3ccc(OCC4CC4)cc3)C2)cc1 [Example 3.39]
- pIC50: 5.82

Structure (SMILES): Cc1ncc(C(=O)N[C@@H](C)c2ccc(C3CN(c4ccc(OCC5CC5)cc4)C3)cc2)s1 [Example 3.40]
- pIC50: 5.88

Structure (SMILES): CC(=O)NCCCC(=O)N[C@@H](C)c1ccc(C2CN(c3ccc(OCC4CC4)cc3)C2)cc1 [Example 3.41]
- pIC50: 5.68

Structure (SMILES): CCC(=O)N[C@@H](C)c1ccc(C2CN(c3ccc(OCC4CC4)cc3)C2)cc1 [Example 3.42]
- pIC50: 6.03

Structure (SMILES): Cc1ccc(C(=O)N[C@@H](C)c2ccc(C3CN(c4ccc(OCC5CC5)cc4)C3)cc2)o1 [Example 3.43]
- pIC50: 5.59

Structure (SMILES): C[C@H](NC(=O)c1cnco1)c1ccc(C2CN(c3ccc4c(c3)OCCO4)C2)cc1 [Example 3.44]
- pIC50: 5.95

Structure (SMILES): C[C@H](NC(=O)C(C)(C)F)c1ccc(C2CN(c3ccc(OCC4CC4)cc3)C2)cc1 [Example 3.46]
- pIC50: 5.94

Structure (SMILES): CC(C(=O)N[C@@H](C)c1ccc(C2CN(c3ccc(OCC4CC4)cc3)C2)cc1)C(F)(F)F (stereo partly drawn) [Example 3.47]
- pIC50: 5.57

Structure (SMILES): C[C@H](NC(=O)Cc1cncnc1)c1ccc(C2CN(c3ccc(OCC4CC4)cc3)C2)cc1 [Example 3.48]
- pIC50: 5.96

Structure (SMILES): CC(=O)Nc1ncc(C(=O)N[C@@H](C)c2ccc(C3CN(c4ccc(OCC5CC5)cc4)C3)cc2)s1 [Example 3.49]
- pIC50: 5.77

Structure (SMILES): COCC(=O)N[C@@H](C)c1ccc(C2CN(c3ccc(OCC4CC4)cc3)C2)cc1 [Example 3.50]
- pIC50: 5.66

Structure (SMILES): CC(=O)Nc1cncc(C(=O)N[C@@H](C)c2ccc(C3CN(c4ccc(OCC5CC5)cc4)C3)cc2)c1 [Example 3.51]
- pIC50: 5.66

Structure (SMILES): C[C@H](NC(=O)c1cnco1)c1ccc(C2CN(c3ccc(OCC4CC4)cc3)C2)cc1 [Example 3.52]
- pIC50: 6.15

Structure (SMILES): C#CCCC(=O)N[C@@H](C)c1ccc(C2CN(c3ccc(OCC4CC4)cc3)C2)cc1 [Example 3.53]
- pIC50: 5.62

Structure (SMILES): CC(=O)Nc1nc(C(=O)N[C@@H](C)c2ccc(C3CN(c4ccc(OCC5CC5)cc4)C3)cc2)co1 [Example 3.54]
- pIC50: 5.63

Structure (SMILES): CC(F)C(=O)N[C@@H](C)c1ccc(C2CN(c3ccc(OCC4CC4)cc3)C2)cc1 (stereo partly drawn) [Example 3.55]
- pIC50: 5.88

Structure (SMILES): C[C@H](NC(=O)C1CC1)c1ccc(C2CN(c3ccc(OCC4CC4)cc3)C2)cc1 [Example 3.56]
- pIC50: 6.15

Structure (SMILES): C[C@H](NC(=O)c1cncs1)c1ccc(C2CN(c3ccc4c(c3)OCCO4)C2)cc1 [Example 3.57]
- pIC50: 5.78

Structure (SMILES): C[C@H](NC(=O)c1ccnnc1)c1ccc(C2CN(c3ccc(OCC4CC4)cc3)C2)cc1 [Example 3.58]
- pIC50: 5.52

Structure (SMILES): CC(=O)Nc1cc(C(=O)N[C@@H](C)c2ccc(C3CN(c4ccc(OCC5CC5)cc4)C3)cc2)ccn1 [Example 3.59]
- pIC50: 6.11

Structure (SMILES): Cc1cc(CC(=O)N[C@@H](C)c2ccc(C3CN(c4ccc(OCC5CC5)cc4)C3)cc2)on1 [Example 3.60]
- pIC50: 5.93

Structure (SMILES): CC(F)C(=O)N[C@@H](C)c1ccc(C2CN(c3ccc4c(c3)OCCO4)C2)cc1 (stereo partly drawn) [Example 3.61]
- pIC50: 5.60

Structure (SMILES): CC(Cc1ccc(C2CN(c3ccc(OCC4CC4)cc3)C2)cc1)NC(=O)C1CCC1 (stereo not drawn) [Example 3.62]
- pIC50: 5.54

Structure (SMILES): CC(Cc1ccc(C2CN(c3ccc(OCC4CC4)cc3)C2)cc1)NC(=O)C1(C)CC1 (stereo not drawn) [Example 3.63]
- pIC50: 5.91

Structure (SMILES): C[C@H](NC(=O)C1CC1)c1ccc(C2CN(c3ccc4c(c3)OCCO4)C2)cc1 [Example 3.64]
- pIC50: 5.61

Structure (SMILES): Cc1nocc1C(=O)N[C@@H](C)c1ccc(C2CN(c3ccc4c(c3)OCCO4)C2)cc1 [Example 3.65]
- pIC50: 5.93

Structure (SMILES): C=CCC(=O)N[C@@H](C)c1ccc(C2CN(c3ccc4c(c3)OCCO4)C2)cc1 [Example 3.66]
- pIC50: 6.01

Structure (SMILES): CC(=O)NCCCC(=O)NC(C)Cc1ccc(C2CN(c3ccc(OCC4CC4)cc3)C2)cc1 (stereo not drawn) [Example 3.67]
- pIC50: 5.77

Structure (SMILES): CCC(=O)N[C@@H](C)c1ccc(C2CN(c3ccc4c(c3)OCCO4)C2)cc1 [Example 3.68]
- pIC50: 6.00

Structure (SMILES): CC(=O)Nc1cc(C(=O)N[C@@H](C)c2ccc(C3CN(c4ccc5c(c4)OCCO5)C3)cc2)ccn1 [Example 3.69]
- pIC50: 5.62

Structure (SMILES): C[C@H](NC(=O)C(F)F)c1ccc(C2CN(c3ccc4c(c3)OCCO4)C2)cc1 [Example 3.70]
- pIC50: 5.99

Structure (SMILES): C[C@H](NC(=O)c1cnn(C)c1)c1ccc(C2CN(c3ccc4c(c3)OCCO4)C2)cc1 [Example 3.71]
- pIC50: 5.77

Structure (SMILES): CC(=O)Nc1nc(C)c(C(=O)N[C@@H](C)c2ccc(C3CN(c4ccc5c(c4)OCCO5)C3)cc2)s1 [Example 3.72]
- pIC50: 5.71

Structure (SMILES): C[C@H](NC(=O)c1ccon1)c1ccc(C2CN(c3ccc4c(c3)OCCO4)C2)cc1 [Example 3.73]
- pIC50: 5.60

Structure (SMILES): Cc1oncc1C(=O)NC(C)Cc1ccc(C2CN(c3ccc(OCC4CC4)cc3)C2)cc1 (stereo not drawn) [Example 3.74]
- pIC50: 6.02

Structure (SMILES): C[C@H](NC(=O)C(C)(C)O)c1ccc(C2CN(c3ccc(OCC4CC4)cc3)C2)cc1 [Example 3.75]
- pIC50: 5.51

Structure (SMILES): Cc1oncc1C(=O)NC(C)Cc1ccc(C2CN(c3ccc4c(c3)OCCO4)C2)cc1 (stereo not drawn) [Example 3.76]
- pIC50: 5.55

Structure (SMILES): CC(Cc1ccc(C2CN(c3ccc(OCC4CC4)cc3)C2)cc1)NC(=O)c1ccon1 (stereo not drawn) [Example 3.77]
- pIC50: 5.77

Structure (SMILES): C[C@H](NC(=O)CC#N)c1ccc(C2CN(c3ccc(OCC4CC4)cc3)C2)cc1 [Example 3.78]
- pIC50: 5.91

Structure (SMILES): CCOC(=O)C1(F)CC1C(=O)NC(C)Cc1ccc(C2CN(c3ccc(OCC4CC4)cc3)C2)cc1 (stereo not drawn) [Example 3.79]
- pIC50: 5.64

Structure (SMILES): C[C@H](NC(=O)CCO)c1ccc(C2CN(c3ccc(OCC4CC4)cc3)C2)cc1 [Example 3.80]
- pIC50: 5.61

Structure (SMILES): C[C@H](NC(=O)c1ccon1)c1ccc(C2CN(c3ccc(OCC4CC4)cc3)C2)cc1 [Example 3.81]
- pIC50: 5.85
